Laboratory results as given in BindingDB's records for doi:10.1016/j.bmc.2011.01.024 (University of Rome Tor Vergata, 2011).

Test: Inhibition of HIV1 3B reverse transcriptase activity infected in human H9 cells assessed as level of p24 antigen

- IC50: 4.48 nM
SMILES: CC1(C)O[C@H]2CC(=O)OC[C@]23[C@H]2CC[C@@]4(C)[C@H](c5ccoc5)OC(=O)[C@H]5O[C@]54[C@]2(C)C(=O)C[C@@H]13 [Limonin]
